According to patent EP4442684A1, “A CLASS OF PYRIMIDINE COMPOUNDS, AND PREPARATION METHOD THEREFOR AND USE THEREOF” (Shanghai Allist Pharmaceuticals Co., Ltd., priority 2021, dated 2023):

Tested on: PC-9-EGFR-Del19-T790M-C797S cells
Experiment: proliferation inhibition on PC-9-EGFR-Del19-T790M-C797S cells, sulforhodamine B method (SRB method)
Format: cell-based
Settings: Homo sapiens, in vitro proliferation inhibition, 72 hours culture, final concentrations 2500 to 0.01nM
Protocol: The in vitro proliferation inhibition activity of the compound on PC-9-EGFR-Del19-T790M-C797Slcells where Del19/T790M/C797S triple mutation exists in exogenously stably overexpressed EGFR protein of human non-small cell lung cancer PC-9 was determined by sulforhodamine B method (SRB method).
Cell source: PC-9-EGFR-Del19-T790M-C797S cells were purchased from Nanjing Cobioer Biosciences Co., Ltd.
PC-9-EGFR-Del19-T790M-C797S cells were cultured in an RPMI1640 complete medium containing puromycin (2µg/ml) and 10% fetal bovine serum. PC-9-EGFR-Del19-T790M-C797S cells in a logarithmic growth phase were taken, seeded in a 96-well plate at a cell density of 5000 cells/135µL complete culture medium/well, placed in a thermostatic incubator containing 5% CO2 at 37°C and cultured for 24 hours to ensure complete anchorage of cells. Each compound was dissolved in dimethyl sulfoxide (DMSO) in advance to prepare a 10mM stock solution, and then the compound was successively diluted with DMSO and the complete culture medium. […]
GraphPad Prism 8.3 software was used for data analysis, and non-linear S-curve regression was used for fitting the data to obtain a dose-effect curve, from which an IC50 value was calculated, and the results are shown in Table 1.

- IC50: 564 nM
SMILES: C=CC(=O)Nc1cc(Nc2nccc(-c3cn(C)c4ccccc34)n2)c(OCC(F)(F)F)nc1N(C)CC[N+](C)(C)[O-] [Compound V]
